Like-named read-outs stand apart in the source and are kept apart here.
How the values were obtained:
[1] = biological target: recombinant human EGFR L858R/C797S double mutant protein (Homo sapiens (Human), UniProt P00533, C797S/L858R); test: Biological Activity Assay B: biochemical assay against EGFR L858R/C797S protein (EGFR LR/CS)
Method: In Row A of a 384-well polypropylene plate, was added 48 μL of DMSO. In wells A1 and A24, were added 12 μL of DMSO. […] To a well in Row A were added 12 μL of each 10 mM test compound stock (100% DMSO). […] The final intermediate dilution plate contained 4×16-point compound serial dilutions in assay buffer. The DMSO concentration was 10%. The intermediate compound dilution plate was transferred to the Bravo and the “5 uL dispense into ARP.pro” protocol was run. To the black low volume assay ready plates, were added 5 μL of 40 uM Phosphosens peptide sensor/4 mM ATP working solution to each well. […] To column 24, was added 10 μL of assay buffer. The final DMSO concentration was 2.5%. […] The plates were sealed with the TopSeal-A Plus plate seals. […] Set for 90 cycles with 120 second interval. […] The slope of each curve was constructed using Dotmatics in each well, and each IC50s was calculated using a 4-parameter fit model.

[2] = biological target: recombinant human EGFR exon 19 deletion/C797S double mutant protein (Homo sapiens (Human), UniProt P00533, C797S/DEL746-750); test: Biological Activity Assay C: biochemical assay against EGFR exon 19 deletion/C797S protein (EGFR d19/CS)
Method in brief: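 Compounds were tested as 16-point serial dilutions (final DMSO 2.5%) with a Phosphosens peptide sensor/ATP working solution (40 uM/4 mM). The signal was read kinetically over 90 cycles at 120 s intervals. IC50s came from 4-parameter fits of per-well slopes.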

Ba/F3_EGFR WT cells = test: Biological Activity Assay D: BaF3 cell proliferation assay, EGFR wild-type (BaF3 WT); format: cell-based; details: Ba/F3 EGFR, read-out: BaF3 WT IC50
BaF3_EGFR LR/CS cells = test: Biological Activity Assay D: BaF3 cell proliferation assay, EGFR L858R/C797S mutant (BaF3 LR/CS); format: cell-based; details: Ba/F3 EGFR, read-out: BaF3 LR/CS IC50
BaF3_EGFR d19/CS cells = test: Biological Activity Assay D: BaF3 cell proliferation assay, EGFR exon 19 deletion/C797S (BaF3 d19/CS); format: cell-based; details: Ba/F3 EGFR, read-out: BaF3 d19/CS IC50
[3] = Ba/F3_EGFR WT cells, ~72 hours, CellTiter-Glo
[4] = BaF3_EGFR LR/CS cells, ~72 hours, CellTiter-Glo
[5] = BaF3_EGFR d19/CS cells, ~72 hours, CellTiter-Glo

Sequence of recombinant human EGFR exon 19 deletion/C797S double mutant protein (P00533 other isoform, or with tags, fused parts or gaps C797S/del 1-668/del 746-750 limits assumed): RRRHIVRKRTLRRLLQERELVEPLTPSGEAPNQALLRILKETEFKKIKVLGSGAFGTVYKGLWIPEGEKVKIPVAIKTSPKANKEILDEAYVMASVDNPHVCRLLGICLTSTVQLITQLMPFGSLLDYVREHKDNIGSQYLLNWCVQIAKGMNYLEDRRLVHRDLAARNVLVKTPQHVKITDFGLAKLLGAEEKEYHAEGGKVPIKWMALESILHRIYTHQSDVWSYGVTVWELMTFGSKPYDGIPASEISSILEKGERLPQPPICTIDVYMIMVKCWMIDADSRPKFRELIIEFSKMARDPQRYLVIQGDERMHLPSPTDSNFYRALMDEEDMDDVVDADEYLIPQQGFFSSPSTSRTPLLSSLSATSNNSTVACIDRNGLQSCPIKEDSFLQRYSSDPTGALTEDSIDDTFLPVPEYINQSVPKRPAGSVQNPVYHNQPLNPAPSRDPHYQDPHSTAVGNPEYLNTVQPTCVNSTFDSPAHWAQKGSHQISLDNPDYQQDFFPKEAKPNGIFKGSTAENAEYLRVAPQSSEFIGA
Sequence of recombinant human EGFR L858R/C797S double mutant protein (P00533 25-1210 C797S/L858R): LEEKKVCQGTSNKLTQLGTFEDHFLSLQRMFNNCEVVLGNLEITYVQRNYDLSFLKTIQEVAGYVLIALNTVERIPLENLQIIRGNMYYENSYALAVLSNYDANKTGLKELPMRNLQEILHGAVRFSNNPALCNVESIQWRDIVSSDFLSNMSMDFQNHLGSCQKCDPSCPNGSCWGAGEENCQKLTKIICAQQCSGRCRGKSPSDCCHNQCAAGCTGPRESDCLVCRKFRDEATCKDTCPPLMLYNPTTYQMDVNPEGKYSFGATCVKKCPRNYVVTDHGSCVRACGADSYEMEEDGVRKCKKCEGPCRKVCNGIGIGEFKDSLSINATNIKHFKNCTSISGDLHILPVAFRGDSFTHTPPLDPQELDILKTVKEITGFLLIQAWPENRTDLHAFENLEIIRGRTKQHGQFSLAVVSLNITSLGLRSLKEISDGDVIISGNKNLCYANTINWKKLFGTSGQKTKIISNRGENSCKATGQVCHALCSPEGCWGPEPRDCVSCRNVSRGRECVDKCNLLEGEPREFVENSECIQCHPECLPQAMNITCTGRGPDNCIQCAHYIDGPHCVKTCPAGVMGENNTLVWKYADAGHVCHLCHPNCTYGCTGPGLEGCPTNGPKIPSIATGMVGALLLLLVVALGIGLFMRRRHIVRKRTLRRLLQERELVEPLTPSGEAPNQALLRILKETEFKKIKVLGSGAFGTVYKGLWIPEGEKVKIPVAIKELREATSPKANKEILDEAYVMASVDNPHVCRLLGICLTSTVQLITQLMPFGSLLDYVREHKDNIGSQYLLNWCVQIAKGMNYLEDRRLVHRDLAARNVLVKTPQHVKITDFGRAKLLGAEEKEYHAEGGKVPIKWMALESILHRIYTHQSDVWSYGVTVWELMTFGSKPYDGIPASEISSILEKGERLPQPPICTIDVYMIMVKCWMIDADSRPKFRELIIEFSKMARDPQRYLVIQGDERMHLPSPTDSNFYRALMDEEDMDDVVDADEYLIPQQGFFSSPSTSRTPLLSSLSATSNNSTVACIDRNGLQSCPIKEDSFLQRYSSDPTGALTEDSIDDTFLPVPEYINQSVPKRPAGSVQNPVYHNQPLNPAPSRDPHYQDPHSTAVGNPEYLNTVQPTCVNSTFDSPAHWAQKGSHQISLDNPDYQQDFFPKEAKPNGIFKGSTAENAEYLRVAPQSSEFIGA

N#CCn1cc(-c2ncnc3oc(-c4ccccc4)nc23)c(-c2ccc(F)cc2)n1 [Example 25, [3-(4-fluorophenyl)-4-(2-phenyl[1,3]oxazolo[5,4-d]pyrimidin-7-yl)-1H-pyrazol-1-yl]acetonitrile]
IC50 [1]: 13 nM | IC50 [2]: 7.72 nM | IC50 (Ba/F3_EGFR WT cells; [3]): 3490 nM | IC50 (BaF3_EGFR LR/CS cells; [4]): 726 nM | IC50 (BaF3_EGFR d19/CS cells; [5]): 810 nM

Fc1ccc(-c2nn(CCCC(F)F)cc2-c2ncnc3oc(-c4ccccc4)nc23)cc1 [Example 26, 7-[1-(4,4-difluorobutyl)-3-(4-fluorophenyl)-1H-pyrazol-4-yl]-2-phenyl[1,3]oxazolo[5,4-d]pyrimidine]
IC50 [1]: 4.06 nM | IC50 [2]: 4.22 nM | IC50 (Ba/F3_EGFR WT cells; [3]): 6410 nM | IC50 (BaF3_EGFR LR/CS cells; [4]): 562 nM | IC50 (BaF3_EGFR d19/CS cells; [5]): 486 nM

OCCn1nc(-c2ccc(F)cc2)c(-c2ncnc3[nH]c(-c4ccccc4)nc23)n1 [Example 27, 2-[4-(4-Fluorophenyl)-5-(8-phenyl-9H-purin-6-yl)-2H-1,2,3-triazol-2-yl]ethan-1-ol]
IC50 [1]: 8.65 nM | IC50 [2]: 3.12 nM | IC50 (Ba/F3_EGFR WT cells; [3]): 11700 nM | IC50 (BaF3_EGFR LR/CS cells; [4]): 208 nM | IC50 (BaF3_EGFR d19/CS cells; [5]): 464 nM

OCCCCn1nc(-c2ccc(F)cc2)c(-c2ncnc3[nH]c(-c4ccccc4)nc23)n1 [Example 28, 4-[4-(4-fluorophenyl)-5-(8-phenyl-9H-purin-6-yl)-2H-1,2,3-triazol-2-yl]butan-1-ol]
IC50 [1]: 10.8 nM | IC50 [2]: 4.16 nM | IC50 (Ba/F3_EGFR WT cells; [3]): 17800 nM | IC50 (BaF3_EGFR LR/CS cells; [4]): 493 nM | IC50 (BaF3_EGFR d19/CS cells; [5]): 885 nM

CN1CCN(c2ccc(-c3cc4c(-c5oc(CCCO)nc5-c5ccc(F)cc5)ccnc4[nH]3)cc2)CC1 [Example 29, 3-[4-(4-Fluorophenyl)-5-{2-[4-(4-methylpiperazin-1-yl)phenyl]-1H-pyrrolo[2,3-b]pyridin-4-yl}-1,3-oxazol-2-yl]propan-1-ol]
IC50 [1]: 0.111 nM | IC50 [2]: 0.0769 nM | IC50 (Ba/F3_EGFR WT cells; [3]): 88.4 nM | IC50 (BaF3_EGFR LR/CS cells; [4]): 1.29 nM | IC50 (BaF3_EGFR d19/CS cells; [5]): 1.22 nM

N#CCn1cc(-c2ncnc3oc(-c4ccccc4)cc23)c(-c2ccc(F)cc2)n1 [Example 30]
IC50 [1]: 1.72 nM | IC50 [2]: 1.88 nM | IC50 (Ba/F3_EGFR WT cells; [3]): 4440 nM | IC50 (BaF3_EGFR LR/CS cells; [4]): 260 nM | IC50 (BaF3_EGFR d19/CS cells; [5]): 319 nM

Fc1ccc(-c2nn(C3COC3)cc2-c2ncnc3oc(-c4ccccc4)cc23)cc1 [Example 31, 4-[3-(4-Fluorophenyl)-1-(oxetan-3-yl)-1H-pyrazol-4-yl]-6-phenylfuro[2,3-d]pyrimidine]
IC50 [1]: 0.521 nM | IC50 [2]: 0.446 nM | IC50 (Ba/F3_EGFR WT cells; [3]): 3320 nM | IC50 (BaF3_EGFR LR/CS cells; [4]): 97.9 nM | IC50 (BaF3_EGFR d19/CS cells; [5]): 66.5 nM

Fc1ccc(-c2nn(CC3(F)COC3)cc2-c2ncnc3oc(-c4ccccc4)cc23)cc1 [Example 32, 4-{1-[(3-fluorooxetan-3-yl)methyl]-3-(4-fluorophenyl)-1H-pyrazol-4-yl}-6-phenylfuro[2,3-d]pyrimidine]
IC50 [1]: 1.36 nM | IC50 [2]: 1.26 nM | IC50 (Ba/F3_EGFR WT cells; [3]): 4730 nM | IC50 (BaF3_EGFR LR/CS cells; [4]): 130 nM | IC50 (BaF3_EGFR d19/CS cells; [5]): 114 nM

CN1CCN(c2ccc(-c3cc4c(-c5cn(CCCO)nc5-c5ccc(F)cc5)ncnc4o3)cc2)CC1 [Example 33, 3-[3-(4-Fluorophenyl)-4-{6-[4-(4-methylpiperazin-1-yl)phenyl]furo[2,3-d]pyrimidin-4-yl}-1H-pyrazol-1-yl]propan-1-ol]
IC50 [1]: 0.212 nM | IC50 [2]: 0.119 nM | IC50 (Ba/F3_EGFR WT cells; [3]): 38 nM | IC50 (BaF3_EGFR LR/CS cells; [4]): 1.16 nM | IC50 (BaF3_EGFR d19/CS cells; [5]): 1.08 nM

CC(C)(O)CCn1cc(-c2ncnc3oc(-c4ccccc4)cc23)c(-c2ccc(F)cc2)n1 [Example 34, 4-[3-(4-fluorophenyl)-4-(6-phenylfuro[2,3-d]pyrimidin-4-yl)-1H-pyrazol-1-yl]-2-methylbutan-2-ol]
IC50 [1]: 1.17 nM | IC50 [2]: 1.59 nM | IC50 (Ba/F3_EGFR WT cells; [3]): 7780 nM | IC50 (BaF3_EGFR LR/CS cells; [4]): 225 nM | IC50 (BaF3_EGFR d19/CS cells; [5]): 122 nM

OCCCc1nc(-c2ccc(F)cc2)c(-c2ncnc3oc(-c4ccccc4)cc23)o1 [Example 35, 3-[4-(4-Fluorophenyl)-5-(6-phenylfuro[2,3-d]pyrimidin-4-yl)-1,3-oxazol-2-yl]propan-1-ol]
IC50 [1]: 0.958 nM | IC50 [2]: 0.54 nM | IC50 (Ba/F3_EGFR WT cells; 72 h): 5950 nM | IC50 (BaF3_EGFR LR/CS cells; 72 h): 134 nM | IC50 (BaF3_EGFR d19/CS cells; 72 h): 185 nM

CNC(=O)CCc1nc(-c2ccc(F)cc2)c(-c2ncnc3oc(-c4ccccc4)cc23)o1 [Example 36, 3-[4-(4-fluorophenyl)-5-(6-phenylfuro[2,3-d]pyrimidin-4-yl)-1,3-oxazol-2-yl]-N-methylpropanamide]
IC50 [1]: 1.13 nM | IC50 [2]: 1.35 nM | IC50 (Ba/F3_EGFR WT cells; [3]): 20000 nM | IC50 (BaF3_EGFR LR/CS cells; [4]): 209 nM | IC50 (BaF3_EGFR d19/CS cells; [5]): 339 nM

CN(C)C(=O)CCc1nc(-c2ccc(F)cc2)c(-c2ncnc3oc(-c4ccccc4)cc23)o1 [Example 37, 3-[4-(4-fluorophenyl)-5-(6-phenylfuro[2,3-d]pyrimidin-4-yl)-1,3-oxazol-2-yl]-N,N-dimethylpropanamide]
IC50 [1]: 1.87 nM | IC50 [2]: 2.6 nM | IC50 (Ba/F3_EGFR WT cells; [3]): 6280 nM | IC50 (BaF3_EGFR LR/CS cells; [4]): 318 nM | IC50 (BaF3_EGFR d19/CS cells; [5]): 514 nM

CS(=O)(=O)CCn1cc(-c2ncnc3oc(-c4ccccc4)cc23)c(-c2ccc(F)cc2)n1 [Example 38, 4-{3-(4-Fluorophenyl)-1-[2-(methanesulfonyl)ethyl]-1H-pyrazol-4-yl}-6-phenylfuro[2,3-d]pyrimidine]
IC50 [1]: 0.434 nM | IC50 [2]: 0.856 nM | IC50 (Ba/F3_EGFR WT cells; [3]): 2170 nM | IC50 (BaF3_EGFR LR/CS cells; [4]): 121 nM | IC50 (BaF3_EGFR d19/CS cells; [5]): 44.8 nM

CS(=O)(=O)n1cc(-c2ncnc3oc(-c4ccccc4)cc23)c(-c2ccc(F)cc2)n1 [Example 39, 4-[3-(4-fluorophenyl)-1-(methanesulfonyl)-1H-pyrazol-4-yl]-6-phenylfuro[2,3-d]pyrimidine]
IC50 [1]: 6.14 nM | IC50 [2]: 5.19 nM | IC50 (Ba/F3_EGFR WT cells; [3]): 1920 nM | IC50 (BaF3_EGFR LR/CS cells; [4]): 161 nM | IC50 (BaF3_EGFR d19/CS cells; [5]): 147 nM

O=S1(=O)CC(n2cc(-c3ncnc4oc(-c5ccccc5)cc34)c(-c3ccc(F)cc3)n2)C1 [Example 40, 3-[3-(4-Fluorophenyl)-4-(6-phenylfuro[2,3-d]pyrimidin-4-yl)-1H-pyrazol-1-yl]-1λ6-thietane-1,1-dione]
IC50 [1]: 0.327 nM | IC50 [2]: 0.192 nM | IC50 (Ba/F3_EGFR WT cells; [3]): 2100 nM | IC50 (BaF3_EGFR LR/CS cells; [4]): 36.4 nM | IC50 (BaF3_EGFR d19/CS cells; [5]): 22 nM

O=S1(=O)CCC(n2cc(-c3ncnc4oc(-c5ccccc5)cc34)c(-c3ccc(F)cc3)n2)C1 (centres unmarked) [Example 41, 3-[3-(4-fluorophenyl)-4-(6-phenylfuro[2,3-d]pyrimidin-4-yl)-1H-pyrazol-1-yl]-1λ6-thiolane-1,1-dione]
IC50 [1]: 0.518 nM | IC50 [2]: 0.375 nM | IC50 (Ba/F3_EGFR WT cells; [3]): 2390 nM | IC50 (BaF3_EGFR LR/CS cells; [4]): 61.6 nM | IC50 (BaF3_EGFR d19/CS cells; [5]): 34.7 nM

O[C@H]1C[C@@H](Cn2cc(-c3ncnc4oc(-c5ccccc5)cc34)c(-c3ccc(F)cc3)n2)C1 [Example 42, (1s, 3s)-3-{[3-(4-Fluorophenyl)-4-(6-phenylfuro[2,3-d]pyrimidin-4-yl)-1H-pyrazol-1-yl]methyl}cyclobutan-1-ol]
IC50 [1]: 0.527 nM | IC50 [2]: 0.335 nM | IC50 (Ba/F3_EGFR WT cells; [3]): 2090 nM | IC50 (BaF3_EGFR LR/CS cells; [4]): 57.5 nM | IC50 (BaF3_EGFR d19/CS cells; [5]): 37.5 nM

O[C@H]1C[C@H](Cn2cc(-c3ncnc4oc(-c5ccccc5)cc34)c(-c3ccc(F)cc3)n2)C1 [Example 43, (1r,3r)-3-{[3-(4-Fluorophenyl)-4-(6-phenylfuro[2,3-d]pyrimidin-4-yl)-1H-pyrazol-1-yl]methyl}cyclobutan-1-ol]
IC50 [1]: 0.39 nM | IC50 [2]: 0.24 nM | IC50 (Ba/F3_EGFR WT cells; [3]): 2240 nM | IC50 (BaF3_EGFR LR/CS cells; [4]): 73.2 nM | IC50 (BaF3_EGFR d19/CS cells; [5]): 40 nM

CC(C)(O)CCc1nc(-c2ccc(F)cc2)c(-c2ncnc3oc(-c4ccccc4)cc23)o1 [Example 44, 4-[4-(4-fluorophenyl)-5-(6-phenylfuro[2,3-d]pyrimidin-4-yl)-1,3-oxazol-2-yl]-2-methylbutan-2-ol]
IC50 [1]: 2.76 nM | IC50 [2]: 1.79 nM | IC50 (Ba/F3_EGFR WT cells; [3]): 6650 nM | IC50 (BaF3_EGFR LR/CS cells; [4]): 263 nM | IC50 (BaF3_EGFR d19/CS cells; [5]): 421 nM

Fc1ccc(-c2nn(CCCC(F)F)cc2-c2ncnc3oc(-c4ccccc4)cc23)cc1 [Example 45, 4-[1-(4,4-Difluorobutyl)-3-(4-fluorophenyl)-1H-pyrazol-4-yl]-6-phenylfuro[2,3-d]pyrimidine]
IC50 [1]: 1.12 nM | IC50 [2]: 1.51 nM | IC50 (Ba/F3_EGFR WT cells; [3]): 2290 nM | IC50 (BaF3_EGFR LR/CS cells; [4]): 185 nM | IC50 (BaF3_EGFR d19/CS cells; [5]): 37.5 nM

CC(C)(O)Cn1cc(-c2ncnc3oc(-c4ccccc4)cc23)c(-c2ccc(F)cc2)n1 [Example 46, 1-[3-(4-Fluorophenyl)-4-(6-phenylfuro[2,3-d]pyrimidin-4-yl)-1H-pyrazol-1-yl]-2-methylpropan-2-ol]
IC50 [1]: 0.389 nM | IC50 [2]: 0.317 nM | IC50 (Ba/F3_EGFR WT cells; [3]): 2160 nM | IC50 (BaF3_EGFR LR/CS cells; [4]): 41.1 nM | IC50 (BaF3_EGFR d19/CS cells; [5]): 21.1 nM
